In publication PMC12031237, “Toxicity Assessment of (4Z)-Lachnophyllum and (4Z,8Z)-Matricaria Lactones: Implications for Environmental Safety of Bioherbicides” (Toxins, 2025):
≈ marks a conversion by molar mass, not a printed value. Where “and” joins values, the source holds several entries; their conditions need not be identical. Equal values may be shown once. Entries after “also recorded” stand apart in the source; their conditions may differ. Read-outs that look alike come from different tables or passages of the source.

Assays:
[1] = Stability (photodegradation) in ISO 8692:2012 medium, quantified by HPLC; format: physicochemical; settings: 20 °C, 254 nm light
Procedure: For the photodegradation assays, 3 mg of MAT and 3 mg of LAC were separately dissolved in 150 µL of DMSO and added to 3 mL of International Organization for Standardization (ISO) 8692:2012 medium. The solutions were exposed to 254 nm of light for up to 16 days. At specific time intervals (1, 2, 3, 6, and 16 days), 400 µL of the solutions were collected and analyzed by TLC using n-hexane/EtOAc (75:25, v/v) as the eluent, with MAT and LAC standard samples serving as references.
HPLC analysis was performed in isocratic mode and with the same ISO medium solutions, using MeCN–H2O (0.1% v/v formic acid) at a 60:40 (v/v) ratio as the mobile phase, with a flow rate of 0.5 mL/min. Detection was carried out at 220 nm with a 20 μL injection loop, monitoring the chromatogram for over 50 min to identify potential degradation products. Each sample was analyzed in triplicate. Control solutions containing only the culture medium and DMSO (without MAT or LAC) were also analyzed under identical conditions to ensure specificity.
Calibration curves for MAT and LAC were prepared by injecting standard samples at concentrations ranging from 0.022 to 2.2 mg for MAT and 0.004 to 2.2 mg for LAC. These standards were used to optimize the method and quantify the degradation products.

A. fischeri = experiment: Bioluminescence (light) inhibition test, ISO 11348-3; settings: for EC50 / inhibition at 3.125 µg/mL: Aliivibrio fischeri, 0.5 h; for EC50: read-out: EC50 (light inhibition), 30 min exposure; for inhibition at 3.125 µg/mL: read-out: light inhibition
Procedure: The bioluminescence inhibition test (30 min) was detected with the A. fischeri (NRRLB-11177) supplied by MicroBioTest, Gent, Belgium, and according to ISO 11348-3 [59]. The bioluminescence was determined by the luminometer Microtox (Model 500 analyzer, New Castle, DE, USA) at 490 nm. To provide the required osmotic pressure for the bacterium, the stock solution was diluted to perform the test in saline water solution (2% sodium chloride, NaCl). The concentrations tested correspond to 0.19, 0.39, 0.78, 1.56, and 3.12 mg L^−^1 and a negative control of 0 mg L^−^1. Toxicity tests were performed in triplicate with a control, and the percentage luminescence inhibition was expressed as the ratio of the decrease in bacterial light production to the remaining light.
(§1) Data analysis was conducted using RStudio for Windows (Version 2024.09.1). Dose–response models were applied to estimate the effective concentrations (EC10 and EC50) for the tested endpoints using the “drc” package. For D. magna, the data were modeled with a binomial log-logistic approach, whereas data for R. subcapitata, A. fischeri and L. sativum were fitted to log-logistic models with the upper limit constrained to 100. Furthermore, to ensure assay sensitivity and validity, a positive control exposed to potassium dichromate for the aquatic species and copper chloride for C. elegans was tested under the same experimental conditions.

R. subcapitata = experiment: Algal growth inhibition test, ISO 8692; settings: for Test Score / EC10 (growth inhibition): 72 h exposure; for EC50 / inhibition at 3.125 µg/mL: Raphidocelis subcapitata; for EC50: read-out: EC50 (growth inhibition); for inhibition at 3.125 µg/mL: read-out: growth inhibition
Procedure: The algal growth inhibition test (72 h) with R. subcapitata was carried out according to ISO 8692 [58]. The algal density was determined by spectrophotometric analysis (DR5000, Hach Lange GbH, Weinheim, Germany) at 670 nm. The concentrations tested correspond to 0.19, 0.39, 0.78, 1.56, and 3.12 mg L^−^1 and a negative control of 0 mg L^−^1. The growth inhibition was calculated as the difference in growth at the end of the test of the sample and the control group. Toxicity tests were carried out in triplicate.
as §1

D. magna = experiment: Crustacean immobility acute test, ISO 6341; format: in vivo, Daphnia magna; settings: for immobilization: 6.91 mg L^−1, 24 h exposure; for EC50: Daphnia magna, read-out: EC50 (immobilization); for Hazard Ranking: GHS ranking of 48 h EC50, this study
Procedure: The immobility acute test (48 h) with D. magna was conducted according to ISO 6341 [60]. D. magna was selected from laboratory stock cultures at the Hygiene Laboratory of the Department of Biology of the University of Naples Federico II, placed in ISO medium, and fed daily with the microalgae R. subcapitata. For the test, five neonates (third brood, <24 h old) were exposed in 10 mL of ISO medium to the following corresponding concentrations: 0.22, 0.43, 0.86, 1.73, 3.46, 6.91, 13.83, 27.65, and 55.30 mg L^−^1 and a negative control of 0 mg L^−^1. Each concentration had 4 replicates, and immobility was assessed after 24 and 48 h of exposure.
as §1

C. elegans = experiment: Nematode survival bioassay in soil, ASTM E2172-01; format: in vivo; settings: for mortality: 24 h exposure, across tested concentrations (1.73 to 94 mg L^−1); for Test Score: N2, Bristol variant (wild type), Caenorhabditis elegans, in vivo, 24 h
Procedure: The nematode bioassay was carried out using the Caenorhabditis elegans wild-type strain N2, Bristol variant, according to the ASTM E2172—01 Standard Method (2014). Culture was maintained on NGM (nematode growth media) plates seeded with Escherichia coli (uracil-deficient OP50 strain) and stored at 20 °C. The tests were conducted using age-synchronized adult nematodes, obtained by lysing gravid nematodes with a bleaching solution (10 g/L NaOH, 10.5 g/L NaOCl), followed by centrifugation and washing with an M9 mineral medium (2.2 mM KH2PO4, 4.2 mM Na2HPO4, 85.6 mM NaCl, and 1 mM MgSO4). The synchronized nematodes were then transferred to NGM agar plates and left to recover overnight.
Soil samples (2.33 g) were hydrated to 35–45% of their dry weight using K-medium in centrifuge tubes. Ten worms were transferred to each tube and exposed to the soil samples for 24 h at 20 °C. […] Treatments were performed in triplicate, with worms kept unfed during the exposure period. Nematodes were extracted by centrifugation (2000 rpm, 2 min) using silica gel (Ludox TM 50, Sigma-Aldrich, St. Louis, MO, USA) with a specific density of 1.13 g/mL. The supernatant was then transferred to 100 mm glass Petri dishes and washed with Keller (K) medium. Extracted individuals were counted under a microscope (40× magnification), with mortality as the measured endpoint. Test validity required a minimum of 80% nematode recovery and 90% survival in the control group.

L. sativum = experiment: Plant germination and growth phytotoxicity test; format: in vivo, Lepidum sativum; settings: 72 h exposure; for germination: tested concentrations up to 94 mg L^−1; for EC50: Lepidium sativum, read-out: EC50 (shoot length)
Procedure: Lepidum sativum seeds were purchased from Microbiotests (Gent, Belgium) and were used for the phytotoxicity test. Tests were conducted following the standard method. Seeds (n = 10) were placed in 10 g of soil medium and exposure was carried out in triplicates. […] Germination (%) and root elongation inhibition were combined to calculate the germination index (GI, %).

[2] = Hazard classification and weight score over the test battery; settings: for hazard classification: classes I (no acute hazard) to V (very high acute hazard); for Weight Score [%]: overall, all tests performed
Procedure: When possible, the EC50 values derived from the tests were used for toxicity classification following the methodology in [65]. Compounds were categorized into five hazard classes, ranging from Class I (no acute hazard) to Class V (very high acute hazard). Additionally, weight scores for each test were calculated to quantify the relative level of toxicity, with scores assigned as follows: 0 (no significant toxic effect), 1 (significant toxic effect), 2 (toxic effect), and 3 (100% toxic effect). The weight score for each compound, based on the tests performed, was expressed as a percentage.

[3] = 30 min exposure, standard error in brackets, n = 3
[4] = estimated from the model, outside of the tested concentrations
[5] = standard error in brackets, n = 3

## CCCC#C/C=C1/C=CC(=O)O1 [LAC, (4Z)-lachnophyllum lactone]
[1]; exposition time 1 day
  Degraded Compound (%): 8.5%
[1]; exposition time 2 days
  Degraded Compound (%): 19.23%
[1]; exposition time 3 days
  Degraded Compound (%): 26.58%
[1]; exposition time 6 days
  Degraded Compound (%): 28.24%
A. fischeri; 30 min exposure
  Test Score: 1
A. fischeri; 30 min exposure, estimated from the model, outside of the tested concentrations
  EC50 (light inhibition): 8.078 µg/mL (≈ 49.8 µM)
A. fischeri; [3]
  EC10 (light inhibition): 0.524 mg L^−1 and 0.524 (0.212) mg L^−1
A. fischeri; [4]
  EC50: 8.07 µg/mL (≈ 49.8 µM)
A. fischeri
  inhibition at 3.125 µg/mL: < 40%
R. subcapitata
  Test Score: 1
R. subcapitata; [5]
  EC10 (growth inhibition): 0.304 mg L^−1 and 0.304 (0.125) mg L^−1
R. subcapitata; 72 h
  EC50: 9.88 µg/mL (≈ 60.9 µM)
  inhibition at 3.125 µg/mL: 36%
D. magna
  immobilization: 100%
  Hazard Ranking: *** (toxic (<1 mg L^−1 ≤ 10 mg L^−1))
D. magna; 24 h exposure
  EC10 (immobilization): 1.67 (0.313) mg L^−1
D. magna; 48 h exposure
  EC10 (immobilization): 1.499 mg L^−1 and 1.49 (1.063) mg L^−1
  EC50 (immobilization): 1.728 µg/mL (≈ 10.7 µM)
  Test Score: 3
D. magna; 24 h, 24 h exposure
  EC50: 2.44 µg/mL (≈ 15 µM)
D. magna; 48 h, 48 h exposure
  EC50: 1.72 µg/mL (≈ 10.6 µM)
C. elegans
  mortality: no mortality
  Test Score: 0
L. sativum
  EC10 (shoot length): 70.87 mg L^−1 and 70.87 (195.32) mg L^−1
  Test Score: 3
  germination: no effects; also recorded: unaffected
  EC50: 85.9 µg/mL (≈ 530 µM)
[2]
  hazard classification: Class II
  Weight Score [%]: 53.33%

## C/C=C\C#C/C=C1/C=CC(=O)O1 [MAT, (4Z,8Z)-matricaria lactone]
[1]; exposition time 1 day
  Degraded Compound (%): 90% and 89.74%
[1]; exposition time 2 days
  Degraded Compound (%): 90.06%
[1]; exposition time 3 days
  Degraded Compound (%): 90.38%
[1]; exposition time 6 days
  Degraded Compound (%): 94.55%
A. fischeri; 30 min exposure
  Test Score: 2
A. fischeri; [3]
  EC10 (light inhibition): 0.063 mg L^−1 and 0.063 (0.013) mg L^−1
A. fischeri; [5]
  EC50: 0.642 µg/mL (≈ 4.01 µM)
A. fischeri
  inhibition at 3.125 µg/mL: ~80%
R. subcapitata; 72 h, concentrations 0.19 to 1.56 mg L^−1, negative = stimulation
  growth inhibition (average): approximately −10%
R. subcapitata
  Test Score: 0
R. subcapitata; [4]
  EC10 (growth inhibition): 3.417 mg L^−1 and 3.417 (0.620) * mg L^−1
R. subcapitata; 72 h
  EC50: 4.52 µg/mL (≈ 28.2 µM)
  inhibition at 3.125 µg/mL: -2.4%
D. magna
  immobilization: 100%
  Hazard Ranking: *** (toxic (<1 mg L^−1 ≤ 10 mg L^−1))
D. magna; 24 h exposure
  EC10 (immobilization): 3.11 (1.894) mg L^−1
D. magna; 48 h exposure
  EC10 (immobilization): 1.215 mg L^−1 and 1.21 (0.294) mg L^−1
  EC50 (immobilization): 2.239 µg/mL (≈ 14 µM)
  Test Score: 3
D. magna; 24 h, 24 h exposure
  EC50: 3.56 µg/mL (≈ 22.2 µM)
D. magna; 48 h, 48 h exposure
  EC50: 2.23 µg/mL (≈ 13.9 µM)
C. elegans
  mortality: no mortality
  Test Score: 0
L. sativum
  EC10 (shoot length): 38.48 mg L^−1 and 38.48 (23.979) mg L^−1
  Test Score: 2
  germination: no effects; also recorded: unaffected
  EC50: 82.3 µg/mL (≈ 514 µM)
[2]
  hazard classification: Class II
  Weight Score [%]: 46.66%
